Patent US20230135127A1, “COMPOSITIONS AND METHODS FOR DISEASE TREATMENT AND PREVENTION BY PH MODIFIERS AND/OR CELL PROLIFERATION INHIBITORS” (priority 2021, published 2023)
Structures can show the parent of a compound that is named as a salt.

Tests used:
[1] = tested on: C57BL/6 mice immunized with MOG35-55 (EAE); settings: for mice with clinical scores lower than at initiation of treatment: by day 4, 5 HCl mice, 9 HOAc mice; for average EAE clinical score: day 4 after initiation of treatment, saline 3.46; for inflammation in the spinal cords (histology): day 4 post initiation of treatment; for mice that reached clinical score of 4 or above: i.p. 87.5 mM, 4 doses from score 1.5-2.5, saline 10 of the 11
Description: Induction of experimental autoimmune encephalomyelitis (EAE), the mouse model of multiple sclerosis, was carried out as previously described. (94). (Also see https://hookelabs.com/protocols/eaeAI_C57BL6.html). […] The final antigen emulsion comprised 1.5 mg/ml of MOG35-55, 189 μg/ml of M. tuberculosis H37Ra and 50% (by volume) IFA.
Female C57BL/6 mice of 9 weeks old were acclimated at CRDAL for 1 week. On day 0, mice were immunized by s.c. (subcutaneous) injection of the antigen emulsion at 4 evenly distributed sites in the dorsal area (25 μl/site). Two hours later, the mice were i.p. injected with Pertussis Toxin (List Biological laboratories, Campbell, Calif., USA) freshly prepared in ice-cold PBS (200 ng in 100 μl PBS/mouse). On day 1, the mice received a second i.p. injection of Pertussis Toxin at the same dosage. […] Mice with clinical score of 3 or above were provided wet chows and hydrogels.
In the EAE model of Example 2, two types of experiments, i.e., therapeutic and preventive experiments, were carried out. For the therapeutic experiments, on the day when the mice first reached the clinical scores of 1.5 to 2.5, the mice received i.p. treatments with saline, or saline plus 87.5 mM HCl or HOAc. The mice received additional 3 i.p. treatments every other day. […] The mice received i.p. treatments every other day for additional 2 doses. Clinical scores of all mice were recorded daily during and after the treatment periods, but experimentation was terminated on mice that reached clinical score of 5. As specified in some experiments, mice were sacrificed, and spinal cords were collected for histology analyses.
Lungs (after BALF collection), spinal cords and intestines were harvested and fixed in 10% neural formalin (Fisher Scientific, Kalamazoo, Mich., USA). […] Periodic acid-Schiff (PAS) staining was also performed with the lung tissue sections to determine mucus secretion in the lungs as a result of the inflammatory infiltration.

[2] = tested on: lymphocytes, eosinophils, macrophages in BALF; neutrophils in blood
Description: (§1) Cells were washed 3 times with PBS then stained with Zombie viability dyes at room temperature for 20 minutes. At the end of incubation, 10% volume of FBS was added to absorb excess Zombie dyes. After washes, the cells were stained with conjugated antibodies against surface antigens on ice. As specified in some experiments, the cells were subsequently stained with fluorochrome-conjugated Avidin. For Annexin V staining, cells were washed twice with plain PBS and once with Annexin V binging buffer (10 mM HEPES, pH7.4, 140 mM NaCl, 2.5 mM CaCl2)) after surface antigen staining, and incubated with fluorochrome-conjugated Annexin V in Annexin V binding buffer for 15 min at room temperature. The cells were washed twice in Annexin V binding buffer and resuspended in Annexin V binding buffer. 7-AAD was added to the cells before analyzed by flow cytometry. For Ki-67 and Foxp3 staining, lymphocytes (after Zombie dye and surface antigen staining) or tumor cells (without surface antigen staining) were fixed and permeabilized using Foxp3 staining buffer kit, then stained with PE-conjugated anti-mouse or human Ki-67 antibodies. (Biolegend, San Diego, Calif., USA). Stained and unstained cells were analyzed on Accuri C6 Flow Cytomer (Accuri Cytometers, Inc., Ann Arbor, Mich.), FACS Canto (BD Bioscience, San Jose, Calif., USA) and Attune™ cytometer (Invitrogen, Carlsbad, Calif.). Data analyses were carried out using FlowJo X.

[3] = tested on: granulocytes and lymphocytes in the blood; settings: RBC-depleted blood
[4] = tested on: C57BL/6 mice immunized with MOG35-55 (EAE)
[5] = tested on: lesions of allergic contact dermatitis
[6] = tested on: white bone marrow (WBM) cells
Description: For all examples, treatments of the mice were carried out either by i.t. (intra-tracheal) instillation or i.p. injection. For i.t. instillation, 60 μl of treatment solution of saline or saline plus 175 mM HCl or HOAc was instilled into the trachea of a mouse using a pipet tip. For i.p. injection, 200 μl of saline or saline plus 87.5 mM HCl, HOAc or NaOH was injected into the peritoneal cavity of a mouse using a 26 or 27G needle. At the time of the first treatment the body weights of the mice ranged about 19 to 30 g.
as §1
To provide an example of this aspect of the present invention, C57BL/6 mice received i.p. treatments with saline or saline plus NaOH every other day for a total of 3 doses. Bone marrows were extracted from both tibias on day 1 or 3 after the final treatment.

[7] = about 5.25M in water, topical 4 times a day, day 1

## Cl [HCl, hydrochloric acid]
[1]
  mice with clinical scores lower than at initiation of treatment: all
  average EAE clinical score: 0.9
  inflammation in the spinal cords (histology): no obvious inflammation
  mice that reached clinical score of 4 or above: none of the 5

## CC(=O)O [HOAc, acetic acid]
[2]; i.t. after 3rd challenge, saline 0.71%
  apoptotic (Annexin V+7-AAD+) macrophages in BALF: 56.4%
[2]; i.t. after 3rd challenge, saline 2.87%
  apoptotic (Annexin V+7-AAD+) eosinophils in BALF: 95.2%
[2]; i.t. after 3rd challenge, saline 3.15%
  apoptotic (Annexin V+7-AAD+) lymphocytes in BALF: 85.3%
[2]; saline 7.61%
  apoptotic neutrophils (Ly6G high) in blood: 38.4%
[1]
  mice with clinical scores lower than at initiation of treatment: 6
  average EAE clinical score: 1.78
  inflammation in the spinal cords (histology): no obvious inflammation
  mice that reached clinical score of 4 or above: 1 of the 9
[1]; mouse, in vivo
  mice whose clinical score remained the same: 2
[3]; saline 22.9%
  percentage of lymphocytes in blood: 13.6%
[3]; saline 32.6%
  percentage of granulocytes in blood: 1.1%
[4]; day 2 after initiation of i.p. treatment, saline 50%
  rate of disease onset (mice with EAE): 30%
[4]; reached 5 days after initiation, saline 80% on day 3
  maximum rate of disease onset: 60%
[5]; [7]
  rash in lesion 2: almost completely disappeared
  rashes in lesion 1: partially disappeared
[5]; by day 2 and day 3, treated day 0 and day 1
  rashes in both lesions: completely disappeared

## [Na+].[OH-] [NaOH, sodium hydroxide]
[6]; day 1, saline 4.85%
  Ki-67hi cells in B lineage cells: 24.8%
[6]; day 1, saline 11.2%
  Ki-67hi cells in non-B lineage cells: 35.3%
[6]; day 1, saline 34.7%
  Ki-67lo cells in B lineage cells: 61.6%
[6]; day 3, saline 0%
  Ki-67hi MPP: 2.54%
[6]; day 3, saline 0.69%
  percentage of T (CD3+) cells in WBM cells: 0.87%
[6]; day 3, saline 0.81%
  Sca-1+ c-kit+ stem cells in Lin- WBM cells: 1.74%
[6]; day 3, saline 2.86%
  Ki-67hi cells in T cells: 11.6%
[6]; day 3, saline 6.67%
  Ki-67hi HSC: 15.6%
[6]; day 3, saline 7.11%
  Ki-67neg TER-119+ cells: 6.72%
[6]; day 3, saline 14.6%
  percentage of TER-119+ cells in lymphoid and myeloid negative WBM cells: 17.5%
[6]; day 3, saline 18.4%
  percentage of CD11c+ TCR- cells in WBM cells: 64%
[6]; day 3, saline 20%
  Ki-67lo cells in T cells: 28.7%
[6]; day 3, saline 21.9%
  Ki-67lo MPP: 30.7%
[6]; day 3, saline 25.3%
  Ki-67lo TER-119+ cells: 16%
[6]; day 3, saline 33.7%
  Ki-67+ cells within the Ly6G+ population: 43.6%
[6]; day 3, saline 39.5%
  Ki-67+ cells in CD11c+ TCR- cells: 70.1%
[6]; day 3, saline 42.4%
  percentage of Ly6G+ cells in WBM cells: 57.7%
[6]; day 3, saline 67%
  Ki-67hi TER-119+ cells: 76.2%
[6]; i.p. x3, both tibias
  increase of average total number of WBM cells vs saline: 88%
[6]; one day after three i.p. treatments, saline about 11%
  percentage of CD19+ B lineage cells in non-granulocyte WBM cells: 17%
[6]; saline less than 14%
  average percentage of WBM cells in total bone marrow cells: over 29%
mice
  tolerance of i.t. instillation: poorly tolerant
